Square brackets hold non-standard residues; d marks the D form. Ends that are not written are not given here. Cit = NC(=O)NCCC[C@H](N)C(=O)O
What was measured:
[1] = test system: B cell-mediated IgG secretion; assay: ELISpot IgG assay; format: cell-based; conditions: compared to media
Text: (§1) Using ELISpot assays, we tested the unmodified and citrullinated forms of three pairs of synthesized ENO1 peptides predicted as having high MHC-II binding affinity and assessed B cell-mediated IgG and T cell-mediated IFNγ secretion (Table 9).

[2] = test system: T cell-mediated IFNγ secretion; assay: ELISpot IFNγ assay; format: cell-based; conditions: compared to media
Text: as §1

Substance	B cell-mediated IgG response (ELISpot) [1]	T cell-mediated IFNγ secretion (ELISpot) [2]	T cell-mediated IFNγ secretion (ELISpot) ([2]; listed as citrullinated peptide 1)
AMQEFMILPVGASSFR*EAMR*GA (AMQEFMILPVGASSF[Cit]EAM[Cit]GA) [citrullinated peptide-2, citrullinated synthesized ENO1 peptide, R16(Cit.), R20(Cit.)]	elicited a potent IgG response		
R*AAVPSGASTGIYEALELR*DNDKTR* (RAAVPSGASTGIYEALELRDNDKTR; citrullinated arginines; MOD_RES (1)..(1) Citrullinated Arginine; MOD_RES (19)..(19) Citrullinated Arginine; MOD_RES (25)..(25) Citrullinated Arginine) [citrullinated peptide-1, citrullinated synthesized ENO1 peptide, position 32-56]	elicited a potent IgG response	modest increase in IFNg secretion	higher amount of INFγ response

From patent US20240201191A1, “CITRULLINATED PROTEINS AS BIOMARKERS AND THERAPY TARGETS FOR CANCER” (BOARD OF REGENTS, THE UNIVERSITY OF TEXAS SYSTEM, priority 2022, published 2024)
